Experiments:
SSTR2 [1] = target: T1, SSTR2 (Rattus norvegicus, UniProt P30680); test: cAMP accumulation in forskolin-stimulated GH4C1/SSTR2 cells (SPA radioimmunoassay); type: cell-based; design: expressed in transfected cells; host or cells: GH4C1 rat pituitary tumor cells (GH4C1/SSTR2); settings: cAMP level, dose response of SRIF agonist + 10 µM peptide 1, forskolin stimulated cells
Excerpt: A primary effect of SRIF upon mammalian cells is the reduction of cyclic adenosine 3',5'-monophosphate(cAMP) levels, via inhibition of adenylyl cyclase. This is the basis of a common assay for SRIF agonists and antagonists, whereby SRIF agonists reduce artificially stimulated cAMP levels, and SRIF antagonists reverse the effect of SRIF. The rat pituitary tumor cell line GH4C1 predominantly expresses SSTR2, and responds to SRIF and to forskolin, a stimulator of adenylate cyclase (see C.M. Eppler, et al., J. Biol. Chem., 267, 15603-15612, 1992, incorporated herein by reference). […] This increases the response to SRIF and provides a greater dynamic range for the measurement of SRIF antagonist activity.
Stimulation of cells. GH4C1/SSTR2 cells, grown in DMEM with 10% bovine serum, are released from a tissue culture dish by incubation for several minutes at 37° C with PBS containing 0.5 mM EDTA. Cells are washed in induction buffer (PBS containing 100 µM IBMX (an inhibitor of cAMP breakdown) and 2 mM CaCl2) at room temperature, and resuspended at 2 x 10^6/mL in induction buffer. Into each well of a 96-well tray are added 50 µL of a 2 X concentration of stimulants in induction buffer. […] Baseline cAMP levels are determined in samples with no added forskolin or SRIF, and each treatment is performed in triplicate.
cAMP assay. […] The 96-well tray is sealed, shaken at room temperature overnight and measured for bound radioligand in a MicroBeta liquid scintillation counter (Wallac, Gaithersburg. MD). The standard curve is determined for each experiment by performing a nonlinear regression (exponential decay) analysis of cpm measured for the cAMP standards vs. their log concentrations, and test sample values are determined by using Prism software (Graphpad Software Inc., San Diego, CA) and are shown in Table II and Figure 1.
The intrinsic activity of an SRIF antagonist is the percent reversal of the SSTR2 activation by SRIF or MK678, wherein 0% is defined by cAMP levels in samples treated with forskolin plus SRIF or MK678 and 100% is the cAMP level measured after treatment with forskolin alone. […]

[2] = target: SRIF receptors expressed in S. cerevisiae (yeast) LY364 cells; test: cell-based or functional assay
SSTR2 [3] = target: T1, SSTR2; test: cAMP accumulation in forskolin-stimulated GH4C1/SSTR2 cells (SPA radioimmunoassay); type: cell-based; design: expressed in transfected cells; host or cells: GH4C1 rat pituitary tumor cells; settings: test peptide 2 µM; percent reversal of SSTR2 activation by SRIF or MK678; 0% = forskolin plus agonist, 100% = forskolin alone
SRIF receptors = target: T2, SRIF receptors (Rattus norvegicus, UniProt P30680); test: Yeast bioassay for SRIF antagonist activity (zone of growth inhibition of LY364 cells growing in response to SRIF); type: cell-based; settings: Table III; diameter of zone of growth inhibition; 10 µL of 5 mg/mL on filter disk; S-14 10 nM
T2 construct: expressed in transfected cells; host or cells: Saccharomyces cerevisiae strain LY364
Procedure: Agar plates containing LY364 cells that are growing in the presence of added SRIF are the basis for a sensitive SRIF antagonist assay, whereby zones of growth inhibition result from the addition of SRIF antagonists to the surface of the agar plate (see L.A. Price, et al., Molecular and Cellular Biology, 15, 6188-6195, 1995, incorporated herein by reference).
In this assay, LY364 cells are grown overnight in 2 mL of synthetic complete(SC) medium (3.4 g/L YNB without amino acids and ammonium sulfate, 10 g/L ammonium sulfate and 1.4 g/L CSM-ura-trp) with glucose (2%) and without uracil and tryptophan. These cells are washed and cultured for 4 to 8 hours in 5 mL of SC medium with lactate (3%) and without uracil and tryptophan, and finally grown overnight in 5 mL of SC medium with galactose (2%) and without uracil and tryptophan. Molten (50° C) SC agar medium with galactose (2%) and without uracil, tryptophan and histidine is adjusted to pH 6.8 with KOH, mixed with 2 x 10^4 cells/mL and SRIF (S-14, 10 nM) and poured into square (20 x 20 cm) petri dishes. Sterile filter disks are placed on the surface of the agar, and saturated with 10 µL of water or DMSO containing 5 mg/mL test peptides. After three days, the plates display a uniform cloudy background of […] cells growing in response to the added SRIF. […] This zone is quantified by measuring its diameter (mm), which varies according to the potency of the SRIF antagonist. Those peptides or mixtures of peptides displaying the largest zones of inhibition are further characterized.
Values are compared among samples in the same experiment, as the degree of yeast growth varies somewhat from assay to assay. For the first five sample types, in which progressively less complex mixtures of peptides are found, this assay is the primary determining factor in choosing which samples form the basis of subsequent syntheses.
Plates are read after 3 days. Samples shown in Table I in bold type are chosen for further synthesis. In Table I, all amino acids are D-amino acids and dashes represent undefined amino acid residues.

T1 sequence (P30680 whole entry): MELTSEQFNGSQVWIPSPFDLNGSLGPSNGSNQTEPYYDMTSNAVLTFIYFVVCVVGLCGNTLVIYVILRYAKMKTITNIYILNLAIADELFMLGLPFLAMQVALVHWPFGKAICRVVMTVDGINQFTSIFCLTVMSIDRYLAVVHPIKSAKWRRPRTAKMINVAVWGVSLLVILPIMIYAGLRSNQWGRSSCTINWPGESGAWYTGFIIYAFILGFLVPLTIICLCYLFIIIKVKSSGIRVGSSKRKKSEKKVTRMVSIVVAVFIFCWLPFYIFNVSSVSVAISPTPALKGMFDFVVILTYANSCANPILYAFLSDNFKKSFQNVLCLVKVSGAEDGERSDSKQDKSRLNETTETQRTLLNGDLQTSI
T2 sequence (P30680 whole entry): as above

| Compound | Inhibition Zone (mm), yeast bioassay for SRIF antagonist activity (LY364 cells growing on 10 nM S-14; 10 µL of 5 mg/mL peptide on a filter disk) [2] [mm] | cAMP Assay Intrinsic activity (SSTR2 [3]) [%] | Yeast Assay (mm) (SRIF receptors) | further results |
| --- | --- | --- | --- | --- |
| CC(C)[C@@H]1NC(=O)[C@H](CCCCN)NC(=O)[C@@H](Cc2c[nH]c3ccccc23)NC(=O)[C@H](Cc2ccc(O)cc2)NC(=O)[C@H](C)N(C)C(=O)[C@H](Cc2ccccc2)NC1=O [MK678] |  |  |  | Maximum (SSTR2 [1]): 8.705; Minimum (SSTR2 [1]): 2.775 |
| Ac-His-Phe-Ile-Arg-Trp-Ala-NH2 (all D), Seq Id No. 22 (peptide) | 15 |  |  |  |
| Ac-His-Phe-Ile-Arg-Trp-Asn-NH2 (all D), Seq Id No. 23 (peptide) | 15 |  |  |  |
| Ac-His-Phe-Ile-Arg-Trp-Gln-NH2 (all D), Seq Id No. 26 (peptide) | 16 |  |  |  |
| Ac-His-Phe-Ile-Arg-Trp-Gly-NH2 (D-amino acids) (peptide) | 13 |  |  |  |
| Ac-His-Phe-Ile-Arg-Trp-Ile-NH2 (all D), Seq Id No. 21 (peptide) | 16 |  |  |  |
| Ac-His-Phe-Ile-Arg-Trp-Leu-NH2 (all D), Seq Id No. 18 (peptide) | 15 |  |  |  |
| Ac-His-Phe-Ile-Arg-Trp-Met-NH2 (all D), Seq Id No. 24 (peptide) | 18 |  |  |  |
| Ac-His-Phe-Ile-Arg-Trp-Thr-NH2 (all D), Seq Id No. 19 (peptide) | 14 |  |  |  |
| Ac-His-Phe-Ile-Arg-Trp-Trp-NH2 (all D), Seq Id No. 25 (peptide) | 16 |  |  |  |
| Ac-His-Phe-Ile-Arg-Trp-Tyr-NH2 (all D), Seq Id No. 20 (peptide) | 16 |  |  |  |
| Peptide 1, Ac-D-His-D-Phe-D-Ile-D-Arg-D-Trp-D-Phe-NH2 | 18 |  |  |  |
| h-f-i-a-w-f [Peptide 5] |  | 44.1 | 10 mm |  |
| h-f-i-r-a-f [Peptide 6] |  | 13.4 | 9 mm |  |
| h-f-i-r-f [Peptide 11] |  | 12.1 | 14 mm |  |
| h-f-i-w-f [Peptide 10] |  | 25.3 | 14 mm |  |
| h-f-r-w-f [Peptide 9] |  | 6.36 | 9 mm |  |
| h-i-r-w-f [Peptide 8] |  | 2.76 | none |  |

Continued, in another order:

| Inhibition Zone (mm), yeast bioassay for SRIF antagonist activity (LY364 cells growing on 10 nM S-14; 10 µL of 5 mg/mL peptide on a filter disk) [2] [mm] | cAMP Assay Intrinsic activity (SSTR2 [3]) [%] | Yeast Assay (mm) (SRIF receptors) | Compound | further results |
| --- | --- | --- | --- | --- |
|  | 43.6 | 17 mm | h-f-i-R-w-f [Peptide 16] |  |
|  | 71.2 | 20.5 mm | h-f-i-k-w-f [Peptide 27] |  |
|  | 50.2 | 19 mm | h-f-i-r-W-f [Peptide 17] |  |
|  | 29.1 | 16 mm | h-f-i-r-w [Peptide 12] |  |
|  | 46.7 | 19 mm | h-f-i-r-w-F [Peptide 18] |  |
|  | 71.2 | 20 mm | h-f-v-r-w-f [Peptide 28] |  |
|  | 54.7 | 18 mm | h-w-i-r-w-f [Peptide 21] |  |
|  | 56.5 | 18 mm | h-y-i-r-w-f [Peptide 20] |  |
|  | 33.3 | 9 mm | k-y-i-r-w-f [Peptide 19] |  |
|  | 27.4 | none | w-h-i-r-w-f [Peptide 22] |  |
|  | 5.64 | none | w-y-i-r-w-f [Peptide 23] |  |
